Experimental data from patent US20130130299A1, “ELECT[…] CYTOMETRY” (University of Utah Research Foundation, priority 2009, published 2013).

System: PC12 cells
Assay: Microchip amperometric detection of electrically evoked exocytotic catecholamine release
Assay type: cell-based, rat
Method: Cells were cultured in suspension in 75 mm^2 tissue culture flasks with RPMI 1640 (Invitrogen, Carlsbad, Calif.) cell culture media supplemented with 15% horse serum (Invitrogen), 2.5% fetal bovine serum (Invitrogen) and 0.02 mg/ml gentamicin (Invitrogen). Flasks were kept in an incubator at 37° C. with 5% CO2. Media was refreshed every 3-4 days, retaining 10% of the existing media each time. Cells were mechanically agitated to break up cell clusters through repeated washing through a pipettor tip. Additional separation was achieved through weekly, overnight treatment of the cells in 1 mM ethylene glycol tetraacetic acid (EGTA, Sigma-Aldrich, St. Louis, Mo.) with subsequent washing and trituration.
Prior to use, cells were transferred to Locke's buffer consisting of 154 mM NaCl, 5.6 mM KCl, 3.6 mM NaHCO3, 2.3 mM CaCl2, 5.6 mM glucose, and 5 mM Hepes (pH 7.4). An aliquot of the solution was immediately transferred to the MEMS device via manual pipette aspiration. […]
Neurotransmitter release from the PC12 cells was measured using a three electrode arrangement with a Au WE (FIGS. 3A and 3B, WE), a Au counter electrode (FIGS. 3A and 3B, CE) and silver/silver chloride (Ag/AgCl) reference electrode (RE) with all controlled by a NPI VA-10 potentiostat (National Precision Instruments (NPI), Tamm, Germany). […]

SMILES: C[C@@H]1C[C@H]2[C@@H]3CCC4=CC(=O)C=C[C@]4(C)[C@@]3(F)[C@@H](O)C[C@]2(C)[C@@]1(O)C(=O)CO [dexamethasone]
- cube root of quantal yield (PC12 cells differentiated with 5 μM dexamethasone, n=209 cells, k=25,463 spikes, WE +700 mV vs Ag/AgCl): 6.6±0.08 zmol^1/3

SMILES: C=C1[C@@H](C)[C@H]2[C@H](Cc3ccccc3)NC(=O)[C@]23[C@H](OC(C)=O)/C=C/[C@@](C)(O)C(=O)[C@@H](C)C/C=C/[C@H]3[C@@H]1O [cytochalasin-D]
- exocytosis activity after exposure to the actin-disrupting agent (population of PC12 cells exposed to cytochalasin-D, data not shown): did not block
